Test results reported in article PMC12843137, “Fine-Tuning Side Chain Substitutions: Impacts on the Lipophilicity–Solubility–Permeability Interplay in Macrocyclic Peptides” (Marine Drugs, 2025).
In brackets after ≈: the same amount, converted by molar mass. Where two headings read alike, the source gives them in different places. Marks after values point to notes of the source that are not given here.

Columns and labels:
[1] = Kinetic solubility in PBS pH 7.4; assay type: physicochemical; settings: PBS pH 7.4, 25 °C; for solubility at 2 h: sodium phosphate buffer (PBS), 25 °C, pH 7.4, aqueous buffer, kinetic from dmso stock
Method: One explanation for the high IC50 values (i.e., low activity) of the new compounds is their potential poor solubility in aqueous solution or inadequate lipophilicity. To investigate this hypothesis, we determined kinetic solubility in […] phosphate buffer at pH 7.4 (Table 1). […] The remaining two compounds, BE and 29, show low solubilities (<0.1 μM). […] Additionally, since approximately 95% of drugs are ionizable, assessment of lipophilicity at pH 7.4 (log D7.4) is essential during the initial phases of drug discovery. In this study, we employ the shake-flask method to evaluate this property. […] Because lipophilicity directly reflects compound–membrane interaction, the activity of these compounds against PANC-1 cells likely stems from their interaction with the cell membrane.
Solubility is determined in 100 mM sodium phosphate buffer (PBS), pH 7.4. The stock solutions of test compound and control compound progesterone are prepared in DMSO at a concentration of 10 mM. 30 µL of working solutions of each sample is placed in order into their proper 96-well rack. 970 µL of PBS pH 7.4 is added into each vial of the cap-less Solubility Sample plate. The assay is performed in duplicate. Add one stir stick to each vial and seal using a molded PTFE/Silicone plug. Then the Solubility Sample plate is transferred to the Eppendorf Thermomixer Comfort plate shaker and shaken at 25 °C at 1100 RPM for 2 h. After completion of the 2 h, plugs are removed and the stir sticks are removed using a big magnet, the samples from the Solubility Sample plate are transferred into the filter plate. Using the Vacuum Manifold, all the samples are filtered. Aliquot of 5 µL is taken from the filtrate, followed by addition of 5 µL DMSO and 490 µL of a mixture of H2O and acetonitrile (1:1 in v/v). 200 μL of diluent is transferred to a new 96-well plate for LC-MS/MS analysis (see SI Bioanalytical Method for Solubility Measurement). The dilution factor is changed according to the solubility values and the LC-MS signal response.
MRM) / -4500 v (negative MRM). […]
13. Bioanalytical Method for Solubility Measurement
MS analysis: Triple Quad TM 5500 instrument from AB Inc (Canada) with an ESI interface
Injection volume: 1 μL, 3 μL, 5 μL or 10 μL
Column: ACQUITY UPLC BEH C18 (2.1 × 50 mmI.D. S-1.7 μm, 12 nm) Column
Mobile phase: 0.1% Ammonium hydroxide solution in water (A) and 0.1% Ammonium hydroxide solution
Column: XSelect Hss T3 2.5μm (2.1 × 50 mm) Column XP
Mobile phase: 0.1% formic acid in water (A) and 0.1% formic acid in acetonitrile (B)

[2] = Caco-2 cell permeability study; assay type: in vitro ADME; settings: human; for efflux ratio at 2 h, 5 µM: Caco-2, pH 7.4; for recovery at 2 h, 5 μM: Caco-2, pH 7.4, Caco-2, 5 μM; for Papp A→B at 2 h, 5 µM / Papp B→A at 2 h, 5 µM: pH 7.4, Caco-2, 5 μM; for Papp A→B at 2 h, 5 µM: apical to basolateral; for Papp B→A at 2 h, 5 µM: basolateral to apical
Text: One of the physicochemical quantities that mirrors the interaction of a compound with the cell membrane is permeability. Traditionally, measuring permeability with the PAMPA model provides estimates of passive permeability across a model membrane. […] Therefore, we measure the cell permeability of the six compounds using Caco-2 cells, so that the apical to basolateral (A to B) and basolateral to apical (B to A) permeabilities, and thereby the efflux ratio, can be determined. Three commercial drugs (Table 2) are used as standard compounds to establish and validate our in-house assay.
For Caco-2 cells (originally obtained from the American Type Culture Collection; ATCC, Manassas, VA, USA), 50 μL and […] of cell culture medium are added to each well of the Transwell insert and reservoir, respectively. And then the HTS transwell plates are incubated at 37 °C, 5% CO2 for 1 h before cell seeding. Caco-2 cells are diluted to 6.86 × 10^5 cells/mL with culture medium and 50 μL of cell suspension is dispensed into the filter well of the 96-well HTS Transwell plate. Cells are cultivated for 14–18 days in a cell culture incubator at 37 °C, 5% CO2, 95% relative humidity. Cell culture medium is replaced every other day, beginning no later than 24 h after initial plating. Stock solutions of the test compounds are prepared at a concentration of 10 mM in DMSO. […] Detailed assay procedures are provided in the SI. […]
dilution factor is changed according to the log D value and the LC-MS signal response. The samples are evaluated by LC-MS/MS analysis. All experiments are performed in duplicates.
5. Caco-2 Cell Permeability Assay
The Caco-2 plate is removed from the incubator and washed twice with pre-warmed HBSS (10 mM HEPES, pH 7.4), and then incubated at 37 °C for 30 minutes. The stock solutions of control compounds and test compounds are diluted in DMSO to get 1 mM solutions and then diluted with HBSS (10 mM HEPES, pH 7.4) get 5 μM working solutions. The final concentration of DMSO in the incubation system is 0.5%. To determine the rate of drug transport in the apical to basolateral direction. 125 μL of 5 μM working solution of control compounds and test compounds are added to the Transwell insert (apical compartment), and transfer 50 μL sample (D0 sample) immediately from the apical compartment to a new 96-well plate. Fill the wells in the receiver plate (basolateral compartment) with 235 μL of HBSS (10 mM HEPES, pH 7.4). To determine the rate of drug transport in the basolateral to apical direction. 285 μL of 5 μM working solution of control compounds and test compounds are to the receiver plate wells (basolateral compartment), and transfer 50 μL sample (D0 sample) immediately from the basolateral compartment to a new 96-well plate.
Fill the wells in the Transwell insert (apical compartment) with 75 μL of HBSS (10 mM HEPES, pH 7.4).
The assay is performed in duplicate. The plates are incubated at 37 °C for 2 h. At the end of the incubation, 50 μL samples from donor sides (apical compartment for Ap→Bl flux, and basolateral compartment for Bl→Ap) and receiver sides (basolateral compartment for Ap→Bl flux, and apical compartment for Bl→Ap) are transferred to wells of a new 96-well plate, followed by the addition of 4 volume of cold acetonitrile containing appropriate internal standards (IS). Samples are Vortexed for 5 minutes and then centrifuged at 3,220 g for 30 minutes. An aliquot of 100 µL of the supernatant is mixed with an appropriate volume of ultra-pure water before LC-MS/MS analysis (see SI Bioanalytical Method for Caco-2 Cell Permeability […]
Papp (A to B) is greater than the Papp (A to B) of minoxidil it is assigned as high permeability. If the Papp (A to B) is […]

[3] = read-out: Mean % Solution Recovery A to B
[4] = read-out: Mean % Solution Recovery B to A

solubility at 2 h [1]	efflux ratio at 2 h, 5 µM [2]	recovery at 2 h, 5 μM [2, 3]	recovery at 2 h, 5 μM [2, 4]	Papp A→B at 2 h, 5 µM [2]	Papp B→A at 2 h, 5 µM [2]	Solubility ([1]; 2 h)	Structure (SMILES)
210 µM (≈ 139 µg/mL)	> 65.3	< 23.5%	8.99%	< 0.0144 ×10⁻⁶ cm/s	0.942 ×10⁻⁶ cm/s		CCCCCCCCCCCCCC1OC(=O)CN(C)C(=O)C=CC(CN2CCN(C)CC2)NC(=O)CNC(=O)C(C)(O)C(=O)C1C (stereo not drawn) [BE-NMP]
< 0.1 µM		< 92.9%	< 71.1%	< 0.00798 ×10⁻⁶ cm/s	< 0.00266 ×10⁻⁶ cm/s	<0.063 * µM	CCCCOc1ccc(-c2ccc(-c3ccc(Cn4cc(CCCCC[C@H]5OC(=O)CN(C)C(=O)/C=C/[C@@H](CN6CCN(C)CC6)NC(=O)CNC(=O)[C@@](C)(O)C(=O)[C@H]5C)nn4)cc3)cc2)cc1 [Compound 29]
259 µM (≈ 252 µg/mL)	> 10.8	< 89.4%	50.4%	< 0.0116 ×10⁻⁶ cm/s	0.13 ×10⁻⁶ cm/s		C[C@@H]1C(=O)[C@](C)(O)C(=O)NCC(=O)N[C@H](CN2CCN(C)CC2)/C=C/C(=O)N(C)CC(=O)O[C@H]1CCCCCc1cn(CCCCCCCNc2cccc3c2CN(C2CCC(=O)NC2=O)C3=O)nn1 (stereo partly drawn) [Compound 40]
268 µM (≈ 207 µg/mL)	2.57	109%	70.4%	0.0348 ×10⁻⁶ cm/s	0.0894 ×10⁻⁶ cm/s		CC1C(=O)C(C)(O)C(=O)NCC(=O)NC(CN2CCN(C)CC2)C=CC(=O)N(C)CC(=O)OC1CCCCc1cn(CCCCCCCCNC(=N)N)nn1 (stereo not drawn) [Compound 31]
